Data: patent US20250320193A1, “OXOISOINDOLINYL SUBSTITUTED PIPERIDINEDIONE DERIVATIVE AND USE THEREOF” (GLUETACS THERAPEUTICS (SHANGHAI) CO., LTD., priority 2022, published 2025)
pIC50: −log10 of the molar value.

What was measured:
IKZF1 = IKZF1 (Homo sapiens (Human), UniProt Q13422+Q96SW2); test: Western blot, substrate protein expression in hPBMC: IKZF1; format: cell-based; conditions: hPBMC, compound 500 nM, 24 hours, Western blot
Method in brief: (§1)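 hPBMC, 1×10^6 cells/mL, 24 h compound exposure; RIPA lysis, BCA protein assay, SDS-PAGE, NC membrane immunoblot. Densitometry vs internal control → % protein remaining; degradation % = 100% − remaining; DC50 = conc. at 50% of DMSO band signal.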

IKZF3 = IKZF3 (Homo sapiens (Human), UniProt Q96SW2+Q9UKT9); test: Western blot, substrate protein expression in hPBMC: IKZF3; format: cell-based; conditions: hPBMC, compound 500 nM, 24 hours, Western blot
Method in brief: as §1

GSPT1 = GSPT1 (Homo sapiens (Human), UniProt P15170+Q96SW2); test: Western blot, substrate protein expression in hPBMC: GSPT1; format: cell-based; conditions: for substrate protein remaining % GSPT1: hPBMC, compound 500 nM, 24 hours, Western blot
Method in brief: as §1

[1] = molecular target: human Cereblon WT GST-tagged protein (Homo sapiens (Human), UniProt Q96SW2); test: CRBN-binding affinity, HTRF (CEREBLON BINDING kit, CISBIO); conditions: HTRF inhibitory activity
Method in brief: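 HTRF competition format: test compound displaces Thalidomide-Red from GST-tagged human Cereblon WT, detected with a Eu-labelled anti-GST antibody. Percent CRBN binding inhibition was derived from the 620 nm signal, normalized to solvent-control and protein-free blank wells.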

human Cereblon WT GST-tagged protein, sequence (Q96SW2 whole entry): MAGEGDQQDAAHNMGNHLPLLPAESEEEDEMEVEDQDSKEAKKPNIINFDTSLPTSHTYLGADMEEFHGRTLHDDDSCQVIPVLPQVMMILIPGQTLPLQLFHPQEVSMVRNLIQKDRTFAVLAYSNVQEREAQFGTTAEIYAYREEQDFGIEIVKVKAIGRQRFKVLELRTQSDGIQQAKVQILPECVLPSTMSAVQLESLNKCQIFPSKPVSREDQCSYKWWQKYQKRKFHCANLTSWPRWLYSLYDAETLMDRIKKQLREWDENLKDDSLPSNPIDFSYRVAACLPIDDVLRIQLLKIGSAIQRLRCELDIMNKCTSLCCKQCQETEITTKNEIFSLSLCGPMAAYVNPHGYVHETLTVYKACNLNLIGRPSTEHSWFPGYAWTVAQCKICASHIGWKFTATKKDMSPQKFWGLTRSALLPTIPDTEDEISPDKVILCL
IKZF1, sequence (Q13422 whole entry): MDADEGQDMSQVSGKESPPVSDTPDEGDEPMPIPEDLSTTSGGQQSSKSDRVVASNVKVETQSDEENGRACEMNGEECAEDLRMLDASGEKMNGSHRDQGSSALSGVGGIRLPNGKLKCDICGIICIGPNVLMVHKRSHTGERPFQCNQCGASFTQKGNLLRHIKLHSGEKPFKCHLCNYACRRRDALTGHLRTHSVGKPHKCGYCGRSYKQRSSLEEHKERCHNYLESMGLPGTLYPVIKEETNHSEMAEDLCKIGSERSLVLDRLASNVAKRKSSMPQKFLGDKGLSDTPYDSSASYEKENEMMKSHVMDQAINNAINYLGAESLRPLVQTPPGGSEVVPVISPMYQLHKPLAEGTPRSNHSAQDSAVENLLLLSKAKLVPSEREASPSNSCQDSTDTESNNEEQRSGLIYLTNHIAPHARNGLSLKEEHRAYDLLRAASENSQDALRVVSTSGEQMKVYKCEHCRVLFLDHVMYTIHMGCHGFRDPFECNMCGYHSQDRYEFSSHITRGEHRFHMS
IKZF1, sequence (Q96SW2 whole entry): as the sequence (Q96SW2 whole entry) above
IKZF1, sequence (Q16531 whole entry partner): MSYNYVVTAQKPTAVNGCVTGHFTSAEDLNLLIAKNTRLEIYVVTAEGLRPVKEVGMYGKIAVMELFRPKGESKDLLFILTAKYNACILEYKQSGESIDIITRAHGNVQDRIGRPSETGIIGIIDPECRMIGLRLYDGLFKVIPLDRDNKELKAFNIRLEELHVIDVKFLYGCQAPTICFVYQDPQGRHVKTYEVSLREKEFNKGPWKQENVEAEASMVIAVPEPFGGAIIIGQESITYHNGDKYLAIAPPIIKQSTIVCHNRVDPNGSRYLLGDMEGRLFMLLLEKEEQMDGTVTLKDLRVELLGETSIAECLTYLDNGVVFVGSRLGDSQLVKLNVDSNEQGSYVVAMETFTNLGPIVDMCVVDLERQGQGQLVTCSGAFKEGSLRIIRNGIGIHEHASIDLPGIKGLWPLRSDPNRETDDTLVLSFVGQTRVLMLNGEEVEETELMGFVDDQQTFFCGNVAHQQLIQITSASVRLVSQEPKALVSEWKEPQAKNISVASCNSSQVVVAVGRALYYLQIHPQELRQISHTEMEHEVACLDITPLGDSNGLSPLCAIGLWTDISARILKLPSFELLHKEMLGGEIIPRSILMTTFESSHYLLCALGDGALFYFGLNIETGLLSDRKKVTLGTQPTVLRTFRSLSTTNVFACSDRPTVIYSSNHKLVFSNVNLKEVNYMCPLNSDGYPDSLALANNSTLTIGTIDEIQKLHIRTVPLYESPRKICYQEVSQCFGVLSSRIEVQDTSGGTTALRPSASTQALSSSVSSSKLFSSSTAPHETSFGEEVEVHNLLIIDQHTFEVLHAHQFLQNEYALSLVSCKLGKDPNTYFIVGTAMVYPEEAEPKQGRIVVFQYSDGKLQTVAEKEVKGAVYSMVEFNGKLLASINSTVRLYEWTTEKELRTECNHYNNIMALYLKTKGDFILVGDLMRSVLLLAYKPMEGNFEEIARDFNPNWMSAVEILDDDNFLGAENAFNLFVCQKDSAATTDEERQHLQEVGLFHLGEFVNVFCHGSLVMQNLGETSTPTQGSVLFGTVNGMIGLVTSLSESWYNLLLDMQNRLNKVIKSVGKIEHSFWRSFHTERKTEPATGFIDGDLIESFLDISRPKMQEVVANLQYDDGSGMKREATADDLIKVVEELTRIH
IKZF3, sequence (Q9UKT9 whole entry): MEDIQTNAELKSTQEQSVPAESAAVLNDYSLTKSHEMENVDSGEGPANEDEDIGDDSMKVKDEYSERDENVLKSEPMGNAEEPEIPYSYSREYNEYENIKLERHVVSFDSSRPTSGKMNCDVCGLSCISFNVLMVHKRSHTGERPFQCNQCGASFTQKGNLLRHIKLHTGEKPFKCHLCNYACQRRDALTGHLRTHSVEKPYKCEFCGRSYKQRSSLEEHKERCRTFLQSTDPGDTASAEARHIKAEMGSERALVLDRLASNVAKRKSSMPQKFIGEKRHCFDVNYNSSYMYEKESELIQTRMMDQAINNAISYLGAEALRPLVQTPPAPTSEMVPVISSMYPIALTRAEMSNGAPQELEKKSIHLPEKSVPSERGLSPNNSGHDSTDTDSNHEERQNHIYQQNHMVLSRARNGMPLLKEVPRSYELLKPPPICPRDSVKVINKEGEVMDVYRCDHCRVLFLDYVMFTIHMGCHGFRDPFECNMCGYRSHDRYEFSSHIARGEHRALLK
IKZF3, sequence (Q96SW2 whole entry): as the sequence (Q96SW2 whole entry) above
IKZF3, sequence (Q16531 whole entry partner): as the sequence (Q16531 whole entry partner) above
GSPT1, sequence (P15170 whole entry): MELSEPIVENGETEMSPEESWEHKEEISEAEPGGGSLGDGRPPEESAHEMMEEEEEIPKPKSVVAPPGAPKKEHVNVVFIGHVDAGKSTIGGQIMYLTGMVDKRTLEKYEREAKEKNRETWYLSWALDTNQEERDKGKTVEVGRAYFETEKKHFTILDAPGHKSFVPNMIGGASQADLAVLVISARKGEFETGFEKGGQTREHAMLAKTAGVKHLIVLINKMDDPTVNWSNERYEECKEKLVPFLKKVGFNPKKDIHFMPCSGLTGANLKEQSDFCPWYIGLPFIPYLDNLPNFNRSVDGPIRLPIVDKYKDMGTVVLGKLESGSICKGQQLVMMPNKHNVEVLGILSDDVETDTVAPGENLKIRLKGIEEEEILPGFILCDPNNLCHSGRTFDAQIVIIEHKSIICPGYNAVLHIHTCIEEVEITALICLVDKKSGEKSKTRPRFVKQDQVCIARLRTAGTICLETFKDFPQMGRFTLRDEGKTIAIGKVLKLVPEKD
GSPT1, sequence (Q96SW2 whole entry): as the sequence (Q96SW2 whole entry) above
GSPT1, sequence (Q16531 whole entry partner): as the sequence (Q16531 whole entry partner) above

Compound	substrate protein remaining % IKZF1 (IKZF1)	substrate protein remaining % IKZF3 (IKZF3)	substrate protein remaining % GSPT1 (GSPT1)	pIC50 [1]	concentration at which GSPT1 protein was clearly/significantly degraded (Western blot, FIG. 1) (GSPT1; hPBMCs)
O=C1CCC(N2Cc3c(CN4CCC5(CCN(C(c6ccccc6)c6ccccc6)CC5)C4)cccc3C2=O)C(=O)N1 (centres unmarked) [GT-05973, 3-(4-((8-benzhydryl-2,8-diazaspiro[4.5]decan-2-yl)methyl)-1-oxoisoindolin-2-yl)piperidine-2,6-dione]	B (B represents substrate protein remaining % > 50%)	A (A represents 0% ≤ substrate protein remaining % ≤ 50%)	A (A represents 0% ≤ substrate protein remaining % ≤ 50%)	5.72 to 6.00	–
O=C1CCC(N2Cc3c(CN4CCN(C(c5ccccc5)c5ccccn5)CC4)cccc3C2=O)C(=O)N1 (centres unmarked) [GT-03836, 3-(1-oxo-4-((4-(phenyl(pyridin-2-yl)methyl)piperazin-1-yl)methyl)isoindolin-2-yl)piperidine-2,6-dione]	B (B represents substrate protein remaining % > 50%)	B (B represents substrate protein remaining % > 50%)	A (A represents 0% ≤ substrate protein remaining % ≤ 50%)	6.00 to 6.30	–
O=C1CCC(N2Cc3cc(CN4CCN(C5c6cc(Cl)ccc6-c6ccc(Cl)cc65)CC4)ccc3C2=O)C(=O)N1 (centres unmarked) [GT-06048, 3-(5-((4-(2,7-dichloro-9H-fluoren-9-yl)piperazin-1-yl)methyl)-1-oxoisoindolin-2-yl)piperidine-2,6-dione]	A (A represents 0% ≤ substrate protein remaining % ≤ 50%)	A (A represents 0% ≤ substrate protein remaining % ≤ 50%)	A (A represents 0% ≤ substrate protein remaining % ≤ 50%)	> 6.30	–
O=C1CCC(N2Cc3cc(CN4CCC(N(c5ccccc5)c5ccccn5)CC4)cc(F)c3C2=O)C(=O)N1 (centres unmarked) [GT-05858, 3-(7-fluoro-1-oxo-5-((4-(phenyl(pyridin-2-yl)amino)piperidin-1-yl)methyl)isoindolin-2-yl)piperidine-2,6-dione]	B (B represents substrate protein remaining % > 50%)	B (B represents substrate protein remaining % > 50%)	A (A represents 0% ≤ substrate protein remaining % ≤ 50%)	6.00 to 6.30	below 50 nM
O=C1CCC(N2Cc3c(ccc(CN4CC5CCC(C4)N5C(c4ccccc4)c4ccccc4)c3F)C2=O)C(=O)N1 (centres unmarked) [GT-03725, 3-(5-((8-benzhydryl-3,8-diazabicyclo[3.2.1]octan-3-yl)methyl)-4-fluoro-1-oxoisoindolin-2-yl)piperidine-2,6-dione]	A (A represents 0% ≤ substrate protein remaining % ≤ 50%)	A (A represents 0% ≤ substrate protein remaining % ≤ 50%)	A (A represents 0% ≤ substrate protein remaining % ≤ 50%)	6.00 to 6.30	–
O=C1CCC(N2Cc3cc(CN4CC5CCC4CN5C(c4ccccc4)c4ccccc4)c(F)cc3C2=O)C(=O)N1 (centres unmarked) [GT-05963, 3-(5-((5-benzhydryl-2,5-diazabicyclo[2.2.2]octan-2-yl)methyl)-6-fluoro-1-oxoisoindolin-2-yl)piperidine-2,6-dione]	B (B represents substrate protein remaining % > 50%)	B (B represents substrate protein remaining % > 50%)	A (A represents 0% ≤ substrate protein remaining % ≤ 50%)	6.00 to 6.30	–
O=C1CCC(N2Cc3cc(C(=O)N4CCC(N(c5ccccc5)c5ccccc5)CC4)ccc3C2=O)C(=O)N1 (centres unmarked) [GT-05926, 3-(5-(4-(diphenylamino)piperidine-1-carbonyl)-1-oxoisoindolin-2-yl)piperidine-2,6-dione]	B (B represents substrate protein remaining % > 50%)	B (B represents substrate protein remaining % > 50%)	A (A represents 0% ≤ substrate protein remaining % ≤ 50%)	> 6.30	–
O=C1CCC(N2C(=O)c3ccc(CN4CC5CN(C(c6ccccc6)c6ccccc6)CC5C4)cc3C2=O)C(=O)N1 (centres unmarked) [GT-06053, 5-((5-benzhydrylhexahydropyrrolo[3,4-c]pyrrol-2 (1H)-yl)methyl)-2-(2,6-dioxopiperidin-3-yl) isoindoline-1,3-dione]	B (B represents substrate protein remaining % > 50%)	B (B represents substrate protein remaining % > 50%)	A (A represents 0% ≤ substrate protein remaining % ≤ 50%)	–	–
O=C1CCC(N2C(=O)c3ccc(CN4CCN(C(c5ccc(C(F)(F)F)cc5)c5ccc(C(F)(F)F)cc5)CC4)cc3C2=O)C(=O)N1 (centres unmarked) [GT-06203, 5-((4-(bis(4-(trifluoromethyl)phenyl)methyl)piperazin-1-yl)methyl)-2-(2,6-dioxopiperidin-3-yl) isoindoline-1,3-dione]	B (B represents substrate protein remaining % > 50%)	A (A represents 0% ≤ substrate protein remaining % ≤ 50%)	A (A represents 0% ≤ substrate protein remaining % ≤ 50%)	–	–
O=C1CCC(N2C(=O)c3ccc(N4C5CC4CN(C(c4ccccc4)c4ccccc4)C5)cc3C2=O)C(=O)N1 (centres unmarked) [GT-05938, 5-(3-benzhydryl-3,6-diazabicyclo[3.1.1]heptan-6-yl)-2-(2,6-dioxopiperidin-3-yl) isoindoline-1,3-dione]	B (B represents substrate protein remaining % > 50%)	B (B represents substrate protein remaining % > 50%)	A (A represents 0% ≤ substrate protein remaining % ≤ 50%)	–	–
O=C1CCC(N2Cc3c(CN4CCN(C(c5ccc(Cl)cc5)c5ccc(Cl)cc5)CC4)cccc3C2=O)C(=O)N1 (centres unmarked) [GT-03648, 3-(4-((4-(bis(4-chlorophenyl)methyl)piperazin-1-yl)methyl)-1-oxoisoindolin-2-yl)piperidine-2,6-dione]	B (B represents substrate protein remaining % > 50%)	B (B represents substrate protein remaining % > 50%)	A (A represents 0% ≤ substrate protein remaining % ≤ 50%)	–	–
O=C1CCC(N2C(=O)c3ccc(C(=O)N4CCN(C(c5cc(F)cc(F)c5)c5cc(F)cc(F)c5)CC4)cc3C2=O)C(=O)N1 (centres unmarked) [GT-06598, 5-(4-(bis(3,5-difluorophenyl)methyl)piperazine-1-carbonyl)-2-(2,6-dioxopiperidin-3-yl) isoindoline-1,3-dione]	B (B represents substrate protein remaining % > 50%)	B (B represents substrate protein remaining % > 50%)	A (A represents 0% ≤ substrate protein remaining % ≤ 50%)	–	–
O=C1CCC(N2Cc3cc(C(=O)N4C5CC4CN(C(c4ccccc4)c4ccccc4)C5)ccc3C2=O)C(=O)N1 (centres unmarked) [GT-05891, 3-(5-(3-benzhydryl-3,6-diazabicyclo[3.1.1]heptane-6-carbonyl)-1-oxoisoindolin-2-yl)piperidine-2,6-dione]	B (B represents substrate protein remaining % > 50%)	B (B represents substrate protein remaining % > 50%)	A (A represents 0% ≤ substrate protein remaining % ≤ 50%)	–	–
